The values below come from patent publication US4843070A, “Substituted thiazetoquinoline-3-carboxylic acids and pharmaceutically acceptable salts thereof” (priority 1986, dated 1989).

Values after ≈ are worked out from the molar mass of the structure shown. Where two headings read alike, the source gives them in different places.

One data set deals with S. aureus 209-P JC. As to the kind of experiment: MIC by agar plate dilution method, S. aureus 209-P JC. Type of data set: cell-based. To be noted: Staphylococcus aureus, S. aureus 209-P JC, inoculum 10^6, 37° C., 18 hours, read-out: minimum inhibitory concentration (MIC). The procedure:
(§1) Test method: The MIC was measured by an agar plate dilution method in accordance with a standard method of Japan Chemotherapeutic Society (cf. Nippon Kagaku Ryoho Gakkaishi, 29(1), 76-79, 1981). Thus, the organisms incubated at 37° C. for 18 hours using sensitivity test broth (Nissei) was diluted to 10^6 CFU/ml using the same broth. […] As a control, enoxacin and ofloxacin were used in Tests 1 and 2, respectively.
(§2) The numbers of the inoculated bacteria were 10^6 in all cases and the unit of the MIC was micrograms/ml.

For a further data set, the system named is M. luteus ATCC 9341. As to the kind of experiment: MIC by agar plate dilution method, M. luteus ATCC 9341. Type of data set: cell-based. To be noted: Micrococcus luteus, ATCC9341, inoculum 10^6, 37° C., 18 hours, read-out: minimum inhibitory concentration (MIC). The procedure:
as §1, §2

The next data set has as its system B. subtilis ATCC 6633. Nature of the data set: MIC by agar plate dilution method, B. subtilis ATCC 6633. To be noted: Bacillus subtilis, ATCC6633, B. subtilis ATCC 6633, inoculum 10^6, 37° C., 18 hours, read-out: minimum inhibitory concentration (MIC). Type of data set: cell-based. The protocol:
as §1, §2

Another data set concerns E. coli NIHJ JC-2. As to the kind of experiment: MIC by agar plate dilution method, E. coli NIHJ JC-2. It is filed as cell-based. To be noted: Escherichia coli, NIHJJC2, E. coli NIHJ JC-2, inoculum 10^6, 37° C., 18 hours, read-out: minimum inhibitory concentration (MIC). The procedure: as §1, §2
The subject of the next data set is K. pneumoniae K-1966. As to the kind of experiment: MIC by agar plate dilution method, K. pneumoniae K-1966. It is filed as cell-based. To be noted: Klebsiella pneumoniae, K1966, K. pneumoniae K-1966, inoculum 10^6, 37° C., 18 hours, read-out: minimum inhibitory concentration (MIC). The protocol: as §1, §2
Another data set deals with S. marcescens IFO 3736. As to the kind of experiment: MIC by agar plate dilution method, S. marcescens IFO 3736. It is filed as cell-based. To be noted: Serratia marcescens, IFO3736, inoculum 10^6, 37° C., 18 hours, read-out: minimum inhibitory concentration (MIC). The protocol:
as §1, §2

Another data set deals with S. flexneri. As to the kind of experiment: MIC by agar plate dilution method, S. flexneri. Type of data set: cell-based. To be noted: Shigella flexneri, 18 hours, read-out: minimum inhibitory concentration (MIC). The procedure:
as §1, §2

In data set [1] the test system is P. aeruginosa E-2. As to the kind of experiment: MIC by agar plate dilution method, P. aeruginosa E-2. Type of data set: cell-based. To be noted: Pseudomonas aeruginosa, E2, P. aeruginosa E-2, inoculum 10^6, 37° C., 18 hours, read-out: minimum inhibitory concentration (MIC). The procedure: as §1, §2
The next data set has as its system S. epidermidis. As to the kind of experiment: MIC by agar plate dilution method, S. epidermidis. It is filed as cell-based. To be noted: Staphylococcus epidermidis, Test 2, inoculum 10^6, 37° C., 18 hours, read-out: minimum inhibitory concentration (MIC). The procedure: as §1, §2
For a further data set, the system named is Proteus mirabilis 181. As to the kind of experiment: MIC by agar plate dilution method, Proteus mirabilis 181. It is filed as cell-based. To be noted: read-out: minimum inhibitory concentration (MIC). The procedure: as §1, §2
The subject of data set [2] is E. coli KC-14. As to the kind of experiment: Therapeutic effect on infection in mice, E. coli KC-14. To be noted: Escherichia coli, KC14, po, 168 h. It is filed as in vivo, ddY-strain male mice. The procedure:
(§3) Test Method: Escherichia coli KC-14 and Psudomonas aeruginosa E-2 were suspended in 4% mucin and 0.25 ml of it was inoculated into peritoneal cavity of ddY-strain male mice (body weight about 20 g; 4 weeks age; 10 mice per group). The numbers of the inoculated bacteria were 5.1×10^4 CFU/mouse and 7.5×10^4 CFU/mouse for E. coli and P. aeruginosa, respectively. The drug was administered orally once 2 hours after the infection of the bacteria and, out of the survival rate after one week, the ED50 values were calculated by a Behrens-Karber method. As controls, ofloxacin and enoxacin were used.
(§4) Bacteria used for calculating ED50 were E. coli KC-14 for (1) and P. aeruginosa E-2 for (2). The compounds (1) to (7) of the present invention designated in Table 2 are as follows.

The subject of data set [3] is P. aeruginosa E-2. Nature of the data set: Therapeutic effect on infection in mice, P. aeruginosa E-2. It is filed as in vivo, ddY-strain male mice. To be noted: Pseudomonas aeruginosa, E2, po, 168 h. The procedure:
as §3, §4

Data set [4] has as its system infections caused by Gram positive bacteria and Pseudomonas aeruginosa (chronic). To be noted: background statement; cited from earlier work.
The test system of a further data set is S. aureus Smith. As to the kind of experiment: MIC by agar plate dilution method, S. aureus Smith. It is filed as cell-based. To be noted: Staphylococcus aureus; Test 1; S. aureus Smith; inoculum 10^6; 37° C., 18 hours; read-out: minimum inhibitory concentration (MIC). The protocol:
as §1, §2

Data set [5] deals with E. coli KC-14. Nature of the data set: MIC by agar plate dilution method, E. coli KC-14. It is filed as cell-based. To be noted: Escherichia coli, KC14; Test 1; E. coli KC-14; inoculum 10^6; 37° C., 18 hours; read-out: minimum inhibitory concentration (MIC). The protocol:
as §1, §2

For a further data set, the system named is E. cloacae No. 1. Nature of the data set: MIC by agar plate dilution method, E. cloacae No. 1. It is filed as cell-based. To be noted: Enterobacter cloacae; Test 1; E. cloacae No. 1; inoculum 10^6; 37° C., 18 hours; read-out: minimum inhibitory concentration (MIC). The protocol: as §1, §2
In the next data set the test system is P. vulgaris HX-19. As to the kind of experiment: MIC by agar plate dilution method, P. vulgaris HX-19. Type of data set: cell-based. To be noted: Proteus vulgaris, HX19, Test 1, inoculum 10^6, 37° C., 18 hours, read-out: minimum inhibitory concentration (MIC). The protocol:
as §1, §2

The subject of another data set is A. calcoaceticus 54. As to the kind of experiment: MIC by agar plate dilution method, A. calcoaceticus 54. It is filed as cell-based. To be noted: Acinetobacter calcoaceticus; Test 1; A. calcoaceticus 54; inoculum 10^6; 37° C., 18 hours; read-out: minimum inhibitory concentration (MIC). The procedure:
as §1, §2

Another data set can be described thus: in vivo. To be noted: mouse, oral administration, ddY-strain male mice, 2 weeks.
The mark [6] stands for this setting: E. coli KC-14, 5.1×10^4 CFU/mouse i.p., drug orally once 2 hours after infection, survival after one week, read-out: ED50.
Setting [7] is: P. aeruginosa E-2, 7.5×10^4 CFU/mouse i.p., drug orally once 2 hours after infection, survival after one week, read-out: ED50.

For orientation: ED50 means the midpoint of the dose-response relation. Usually LD50 stands for the dose at which mortality reaches 50%.

Source text for in vivo: The result of oral administration to ddY-strain male mice (7 weeks age; body weight ca. 35 g; 3 mice per group) for 2 weeks was given.

`CC1COc2c(N3CCN(C)CC3)c(F)cc3c(=O)c(C(=O)O)cn1c23` (racemic) [Ofloxacin, ofloxacin, reference compound]: the MIC in the data set on S. aureus 209-P JC (Test 2) was 0.78 µg/mL (≈ 2.16 µM); in the data set with M. luteus ATCC 9341 (Test 2, M. luteus ATTC 9341) it was 3.13 µg/mL (≈ 8.66 µM); in the data set on B. subtilis ATCC 6633 (Test 2), 0.2 µg/mL (≈ 0.553 µM); in the data set with E. coli NIHJ JC-2 (Test 2) it was 0.05 µg/mL (≈ 0.138 µM); in the data set with K. pneumoniae K-1966 (Test 2) it was 0.1 µg/mL (≈ 0.277 µM); in the data set with S. marcescens IFO 3736 (Test 2, S. Marcescens IFO 3736), 0.39 µg/mL (≈ 1.08 µM). Moreover, the MIC stood at 0.1 µg/mL (≈ 0.277 µM) in the data set on S. flexneri (Test 2, inoculum 10^6, 37° C.); 1.56 µg/mL (≈ 4.32 µM) in the data set with P. aeruginosa E-2 [1] (Test 2); 1.56 µg/mL (≈ 4.32 µM) in the data set with S. epidermidis; 0.1 µg/mL (≈ 0.277 µM) with Proteus mirabilis 181 (Test 2, Proteus mirabilis 181, inoculum 10^6, 37° C., 18 hours). The ED50 in the data set on E. coli KC-14 [2] (setting [6]) was 0.8 mg/kg; in the data set with P. aeruginosa E-2 [3] (setting [7]) it was 16 mg/kg. The “activity against infections caused by Gram positive bacteria and Pseudomonas aeruginosa (chronic)” value in data set [4] is recorded as “not active”.

Take `CCn1cc(C(=O)O)c(=O)c2cc(F)c(N3CCNCC3)nc21` [Enoxacin, enoxacin, reference compound]: the MIC in the data set with S. aureus 209-P JC (Test 1) amounted to 0.78 µg/mL (≈ 2.44 µM); in the data set on S. aureus Smith, 0.78 µg/mL (≈ 2.44 µM); in the data set with M. luteus ATCC 9341 (Test 1, M. luteus ATCC 9341), 25 µg/mL (≈ 78 µM); in the data set with B. subtilis ATCC 6633 (Test 1), 0.2 µg/mL (≈ 0.624 µM); in the data set on E. coli NIHJ JC-2 (Test 1), 0.2 µg/mL (≈ 0.624 µM); with E. coli KC-14 [5] it was 0.1 µg/mL (≈ 0.312 µM). The MIC with K. pneumoniae K-1966 (Test 1) came to 0.2 µg/mL (≈ 0.624 µM); in the data set with E. cloacae No. 1 it was 0.1 µg/mL (≈ 0.312 µM); in the data set on S. marcescens IFO 3736 (Test 1, S. marcescens IFO 3736), 0.39 µg/mL (≈ 1.22 µM); in the data set with P. vulgaris HX-19 it was 0.05 µg/mL (≈ 0.156 µM); in the data set with S. flexneri (Test 1, inoculum 10^6, 37° C.) it was 0.1 µg/mL (≈ 0.312 µM); in the data set with P. aeruginosa E-2 [1] (Test 1), 0.78 µg/mL (≈ 2.44 µM). Further, in the data set on A. calcoaceticus 54, the MIC was 1.56 µg/mL (≈ 4.87 µM). Further, the 50% effective dose (ED50) in the data set with E. coli KC-14 [2] (setting [6]) is 1.8 mg/kg; in the data set with P. aeruginosa E-2 [3] (setting [7]), 13.1 mg/kg. Moreover, the “activity against infections caused by Gram positive bacteria and Pseudomonas aeruginosa (chronic)” value in data set [4] was “not active”.

For the molecule `CC1Sc2c(C(=O)O)c(=O)c3cc(F)c(N4CCN(C)CC4)cc3n21` (stereo not shown) [Table 1 (2), 6-Fluoro-1-methyl-7-(4-methyl-1-piperazinyl)-4-oxo-4H-(1,3)thiazeto(3,2-a)quinoline-3-carboxylic acid], the LD50 at 336 h in “in vivo” is ≥ 3000 mg/kg.

As for `CC1Sc2c(C(=O)O)c(=O)c3cc(F)c(N4CCN(C)CC4)cc3n21.O=S(=O)(O)O` (stereo not shown) [Table 1 (5), 6-Fluoro-1-methyl-7-(4-methyl-1-piperazinyl)-4-oxo-4H-(1,3)thiazeto(3,2-a)quinoline-3-carboxylic acid sulfate], the ED50 with E. coli KC-14 [2] is 0.5 mg/kg; with P. aeruginosa E-2 [3], 4 mg/kg.

For `COc1c(N2CCN(C)CC2)c(F)cc2c(=O)c(C(=O)O)c3n(c12)C(C)S3` (stereo not shown) [Table 1 (14), 6-Fluoro-8-methoxy-1-methyl-7-(4-methyl-1-piperazinyl)-4-oxo-4H-(1,3)thiazeto(3,2-a)quinoline-3-carboxylic acid], the MIC was determined as 0.1 µg/mL (≈ 0.254 µM) in the data set with S. aureus 209-P JC (Test 2); 0.2 µg/mL (≈ 0.508 µM) with M. luteus ATCC 9341 (Test 2, M. luteus ATTC 9341); 0.025 µg/mL (≈ 0.0635 µM) in the data set on B. subtilis ATCC 6633 (Test 2); 0.05 µg/mL (≈ 0.127 µM) with E. coli NIHJ JC-2 (Test 2); 0.025 µg/mL (≈ 0.0635 µM) with K. pneumoniae K-1966 (Test 2); 0.2 µg/mL (≈ 0.508 µM) with S. marcescens IFO 3736 (Test 2, S. Marcescens IFO 3736). Moreover, the MIC was 0.0125 µg/mL (≈ 0.0318 µM) with S. flexneri (Test 2, inoculum 10^6, 37° C.); 0.39 µg/mL (≈ 0.991 µM) in the data set with P. aeruginosa E-2 [1] (Test 2); 0.39 µg/mL (≈ 0.991 µM) with S. epidermidis; 0.0125 µg/mL (≈ 0.0318 µM) with Proteus mirabilis 181 (Proteus mirabilis, 181, 18 h).

On to `CCOC(=O)c1c2n(c3cc(N4CCN(C)C(C)C4)c(F)cc3c1=O)C(C)S2` (stereo not shown) [Table 2 (3), Ethyl 7-(3,4-dimethyl-1-piperazinyl)-6-fluoro-1-methyl-4-oxo-4H-(1,3)thiazeto(3,2-a)quinoline-3-carboxylate], for which the LD50 at 336 h in the data set “in vivo” was ≥ 3000 mg/kg.

In the case of `CCOC(=O)c1c2n(c3cc(N4CCN(CC(C)=O)CC4)c(F)cc3c1=O)C(C)S2` (stereo not shown) [Table 2 (5), Ethyl 7-(4-acetonyl-1-piperazinyl)-6-fluoro-1-methyl-4-oxo-4H-(1,3)thiazeto(3,2-a)quinoline-3-carboxylate], in “in vivo”, the median lethal dose (LD50) at 336 h was ≥ 3000 mg/kg.

Consider `CC(=O)CN1CCN(c2cc3c(cc2F)c(=O)c(C(=O)O)c2n3C(C)S2)CC1` (stereo not shown) [Table 2 (6), 7-(4-Acetonyl-1-piperazinyl)-6-fluoro-1-methyl-4-oxo-4H-(1,3)thiazeto(3,2-a)quinoline-3-carboxylic acid], for which the ED50 in the data set on E. coli KC-14 [2] (setting [6]) is 0.6 mg/kg; with P. aeruginosa E-2 [3] (setting [7]), 5 mg/kg.
